Publication PMC12736255, “Reinvestigating Pyrrol-2-One-Based Compounds: From Antimicrobial Agents to Promising Antitumor Candidates” (Pharmaceuticals, 2025)

Legend:
[1] = test system: SF-268; experiment: NCI-60 5-dose screen; format: cell-based, human; details: for GI50 / CC50: Homo sapiens; for CC50: read-out: LC50 (the source's name)
[2] = test system: DU-145; experiment: NCI-60 single-dose screen; format: cell-based; details: Homo sapiens; DU-145, 10^–5 M; read-out: GI (%)
Summary of the method: (§1)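 Values come from a one-concentration NCI screen in which compounds at 10^−5 M were tested on sixty human tumor cell lines.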

[3] = test system: IGROV1; experiment: NCI-60 single-dose screen; format: cell-based; details: Homo sapiens, IGROV-1; IGROV1, 10^–5 M; read-out: GI (%)
Summary of the method: as §1

[4] = test system: SR; experiment: NCI-60 single-dose screen; format: cell-based; details: Homo sapiens, 10^–5 M, read-out: GI (%)
Summary of the method: as §1

[5] = test system: NCI-H460; experiment: NCI-60 single-dose screen; format: cell-based; details: Homo sapiens; NCI-H460, 10^–5 M; read-out: GI (%)
Summary of the method: as §1

[6] = test system: K-562; experiment: NCI-60 single-dose screen; format: cell-based; details: Homo sapiens, K562; K-562, 10^–5 M; read-out: GI (%)
Summary of the method: as §1

[7] = test system: PC-3; experiment: NCI-60 single-dose screen; format: cell-based; details: Homo sapiens, PC-3, PC-3, 10^–5 M; read-out: GI (%)
Summary of the method: as §1

[8] = test system: CCRF-CEM; experiment: NCI-60 single-dose screen; format: cell-based; details: Homo sapiens, 10^–5 M, read-out: GI (%)
Summary of the method: as §1

[9] = test system: OVCAR-4; experiment: NCI-60 single-dose screen; format: cell-based; details: Homo sapiens; OVCAR-4, 10^–5 M; read-out: GI (%)
Summary of the method: as §1

[10] = test system: MALME-3M; experiment: NCI-60 single-dose screen; format: cell-based; details: Homo sapiens, 10^–5 M, read-out: GI (%)
Summary of the method: as §1

[11] = test system: OVCAR-5; experiment: NCI-60 single-dose screen; format: cell-based; details: Homo sapiens; OVCAR-5, 10^–5 M; read-out: GI (%)
Summary of the method: as §1

[12] = test system: HCC-2998; experiment: NCI-60 single-dose screen; format: cell-based; details: Homo sapiens; HCC-2998, 10^–5 M; read-out: GI (%)
Summary of the method: as §1

[13] = test system: UACC-62; experiment: NCI-60 single-dose screen; format: cell-based; details: Homo sapiens; UACC-62, 10^–5 M; read-out: GI (%)
Summary of the method: as §1

[14] = test system: ACHN; experiment: NCI-60 single-dose screen; format: cell-based; details: Homo sapiens, 10^–5 M, read-out: GI (%)
Summary of the method: as §1

[15] = test system: SK-MEL-28; experiment: NCI-60 single-dose screen; format: cell-based; details: Homo sapiens; SK-MEL-28, 10^–5 M; read-out: GI (%)
Summary of the method: as §1

[16] = test system: TK-10; experiment: NCI-60 single-dose screen; format: cell-based; details: Homo sapiens; TK-10, 10^–5 M; read-out: GI (%)
Summary of the method: as §1

[17] = test system: A549/ATCC; experiment: NCI-60 single-dose screen; format: cell-based; details: Homo sapiens, 10^–5 M, read-out: GI (%)
Summary of the method: as §1

[18] = test system: RXF 393; experiment: NCI-60 5-dose screen; format: cell-based, human; details: for GI50 / CC50: Homo sapiens; for CC50: read-out: LC50 (the source's name)
[19] = test system: CCRF-CEM; experiment: NCI-60 5-dose screen; format: cell-based; details: Homo sapiens; for CC50: read-out: LC50 (the source's name)
[20] = test system: T-47D; experiment: NCI-60 5-dose screen; format: cell-based, human; details: for GI50 / CC50: Homo sapiens, T47D; for CC50: read-out: LC50 (the source's name)
[21] = test system: HOP-62; experiment: NCI-60 5-dose screen; format: cell-based, human; details: for GI50 / CC50: Homo sapiens; for CC50: read-out: LC50 (the source's name)
[22] = test system: TK-10; experiment: NCI-60 5-dose screen; format: cell-based, human; details: for GI50 / CC50: Homo sapiens; for CC50: read-out: LC50 (the source's name)
[23] = test system: OVCAR-3; experiment: NCI-60 5-dose screen; format: cell-based, human; details: for GI50 / CC50: Homo sapiens; for CC50: read-out: LC50 (the source's name)
[24] = test system: SR; experiment: NCI-60 5-dose screen; format: cell-based, human; details: for GI50 / CC50: Homo sapiens; for CC50: read-out: LC50 (the source's name)
[25] = test system: M14; experiment: NCI-60 5-dose screen; format: cell-based, human; details: for GI50 / CC50: Homo sapiens; for CC50: read-out: LC50 (the source's name)
[26] = test system: MALME-3M; experiment: NCI-60 5-dose screen; format: cell-based, human; details: for GI50 / CC50: Homo sapiens, Malme-3M; for CC50: read-out: LC50 (the source's name); for TGI: MALME-3M
[27] = test system: HT29; experiment: NCI-60 5-dose screen; format: cell-based, human; details: for GI50 / CC50: Homo sapiens; for GI50: HT-29; for CC50: HT-29, read-out: LC50 (the source's name)
[28] = test system: RPMI-8226; experiment: NCI-60 5-dose screen; format: cell-based, human; details: for GI50 / CC50: Homo sapiens; for CC50: read-out: LC50 (the source's name)
[29] = test system: HCT-116; experiment: NCI-60 5-dose screen; format: cell-based, human; details: for GI50 / CC50: Homo sapiens; for CC50: read-out: LC50 (the source's name)
[30] = test system: BT-549; experiment: NCI-60 5-dose screen; format: cell-based, human; details: for GI50 / CC50: Homo sapiens; for CC50: read-out: LC50 (the source's name)
[31] = test system: HOP-92; experiment: NCI-60 5-dose screen; format: cell-based, human; details: for GI50 / CC50: Homo sapiens; for CC50: read-out: LC50 (the source's name)
[32] = test system: SF-295; experiment: NCI-60 single-dose screen; format: cell-based, human; details: SF-295, 10^–5 M
Summary of the method: as §1

[33] = test system: MDA-MB-468; experiment: NCI-60 single-dose screen; format: cell-based, human; details: MDA-MB-468, 10^–5 M
Summary of the method: as §1

[34] = test system: HOP-62; experiment: NCI-60 single-dose screen; format: cell-based, human; details: HOP-62, 10^–5 M
Summary of the method: as §1

[35] = test system: UO-31; experiment: NCI-60 single-dose screen; format: cell-based, human; details: UO-31, 10^–5 M
Summary of the method: as §1

[36] = test system: U251; experiment: NCI-60 single-dose screen; format: cell-based, human; details: U251, 10^–5 M
Summary of the method: as §1

[37] = test system: BT-549; experiment: NCI-60 single-dose screen; format: cell-based, human; details: BT-549, 10^–5 M
Summary of the method: as §1

## O=C1C(Nc2ccc(I)cc2)=CC(c2ccc(O)c(O)c2)N1c1ccc(I)cc1 (stereo not drawn) [3h]
[1]
  TGI: >100 µM
  GI50: 6.04 µM
  CC50: > 100 µM
[2]
  inhibition at 10 µM: 40%
[3]
  inhibition at 10 µM: 26%
[4]
  inhibition at 10 µM: 100%
[5]
  inhibition at 10 µM: 98%
[6]
  inhibition at 10 µM: 89%
[7]
  inhibition at 10 µM: > 70%
[8]
  inhibition at 10 µM: 100%
[9]
  inhibition at 10 µM: 100%
[10]
  inhibition at 10 µM: 100%
[11]
  inhibition at 10 µM: 22%
[12]
  inhibition at 10 µM: 98%
[13]
  inhibition at 10 µM: 62%
[14]
  inhibition at 10 µM: 61%
[15]
  inhibition at 10 µM: 75%
[16]
  inhibition at 10 µM: 50%
[17]
  inhibition at 10 µM: 73%
[18]
  TGI: >100 µM
  GI50: 6.25 µM
  CC50: > 100 µM
[19]
  GI50: 3.09 µM
  CC50: 3.61 µM
[20]
  TGI: >100 µM
  GI50: 2.41 µM
  CC50: > 100 µM
[21]
  TGI: >100 µM
  GI50: > 100 µM
  CC50: > 100 µM
[22]
  TGI: >100 µM
  GI50: > 100 µM
  CC50: > 100 µM
[23]
  TGI: >100 µM
  GI50: 9.16 µM
  CC50: > 100 µM
[24]
  TGI: 2.99 µM
  GI50: 1.55 µM
  CC50: 5.75 µM
[25]
  TGI: >100 µM
  GI50: 5.34 µM
  CC50: > 100 µM
[26]
  GI50: 2680 nM
  CC50: > 100 µM
  TGI: >100 µM
[27]
  TGI: >100 µM
  GI50: 8.8 µM
  CC50: > 100 µM
[28]
  TGI: 6.01 µM
  GI50: 2400 nM
  CC50: > 100 µM
[29]
  TGI: >100 µM
  GI50: 7.43 µM
  CC50: > 100 µM
[30]
  TGI: >100 µM
  GI50: > 100 µM
  CC50: > 100 µM
[31]
  TGI: 8.97 µM
  GI50: 4080 nM
  CC50: > 100 µM
[32]
  GI (%): 56%
[33]
  GI (%): 100 ^h1%
[34]
  GI (%): 82%
[35]
  GI (%): 54%
[36]
  GI (%): 58%
[37]
  GI (%): 81%

## N#Cc1ccc(C2C=C(Nc3ccc(I)cc3)C(=O)N2c2ccc(I)cc2)cc1 (stereo not drawn) [3l]
[1]
  TGI: >100 µM
  GI50: 4.69 µM
  CC50: > 100 µM
[2]
  inhibition at 10 µM: 37%
[3]
  inhibition at 10 µM: 54%
[4]
  inhibition at 10 µM: 87%
[5]
  inhibition at 10 µM: 40%
[6]
  inhibition at 10 µM: 14%
[7]
  inhibition at 10 µM: 45%
[8]
  inhibition at 10 µM: 74%
[9]
  inhibition at 10 µM: 100%
[10]
  inhibition at 10 µM: 46%
[11]
  inhibition at 10 µM: 11%
[12]
  inhibition at 10 µM: 50%
[13]
  inhibition at 10 µM: 17%
[14]
  inhibition at 10 µM: 100%
[15]
  inhibition at 10 µM: 29%
[16]
  inhibition at 10 µM: 99%
[17]
  inhibition at 10 µM: 31%
[18]
  TGI: >100 µM
  GI50: 3.72 µM
  CC50: > 100 µM
[19]
  GI50: 3.26 µM
  CC50: > 100 µM
[20]
  TGI: >100 µM
  GI50: 7.13 µM
  CC50: > 100 µM
[21]
  TGI: >100 µM
  GI50: 5.21 µM
  CC50: > 100 µM
[22]
  TGI: >100 µM
  GI50: 3.85 µM
  CC50: > 100 µM
[23]
  TGI: >100 µM
  GI50: 4.72 µM
  CC50: > 100 µM
[24]
  TGI: >100 µM
  GI50: 6.28 µM
  CC50: > 100 µM
[25]
  TGI: >100 µM
  GI50: 7.24 µM
  CC50: > 100 µM
[26]
  GI50: 2070 nM
  CC50: > 100 µM
  TGI: >100 µM
[27]
  TGI: >100 µM
  GI50: 9.43 µM
  CC50: > 100 µM
[28]
  TGI: >100 µM
  GI50: 3070 nM
  CC50: > 100 µM
[29]
  TGI: >100 µM
  GI50: 3.83 µM
  CC50: > 100 µM
[30]
  TGI: >100 µM
  GI50: 5.81 µM
  CC50: > 100 µM
[31]
  TGI: 4.89 µM
  GI50: 1460 nM
  CC50: > 100 µM
